# Where two headings read alike, the source gives them in different places.
# Experiments:
# Experiment in all cases: Cell surface BCMA by FACS
# Assay type in all cases: cell-based, human
# [1] = test system: BC-1 cells (B-cell Lymphoma); details: for EC50: Homo sapiens
# Experimental: (§1) […] cell lines, comprising 9 subtypes of lymphomas (see Table 1), were seeded at 1×10^5 cells/well in a total volume of 250 μl into a 96-well plate. The cells were cultured in RPMI medium supplemented with 10% FCS. Compound (22) was added to the cell cultures at a concentration of 10 μM, 1 μM, 100 nM, 10 nM, 1 nM, 100 pM, 10 pM, 1 pM, and 100 fM, and cell lines (8 from Hadassah Medical Center, 31 from Eurofins) were incubated at 37° C. for 24 hours with Compound (22). Following incubation, the cells were collected and BCMA levels were evaluated on the cell surface for cell-bound BCMA. Cells were stained with an anti-BCMA antibody (PE anti-human 19F2 BCMA, Biolegend), and cell surface BCMA levels were determined by FACS analysis (Mean Fluorescence Intensity. Soluble BCMA levels were analyzed by ELISA (Human BCMA/TNFRSF17 DuoSet kit: R&D Systems).
# [2] = test system: BCP-1 cells (B-cell Lymphoma); details: for EC50: Homo sapiens
# Experimental: as §1
# [3] = test system: CA46 cells (Burkitt's Lymphoma); details: for EC50: Homo sapiens
# Experimental: as §1
# [4] = test system: DOHH-2 cells (DLBCL); details: for EC50: Homo sapiens
# Experimental: as §1
# [5] = test system: Daudi cells (Burkitt's Lymphoma); details: for EC50: Homo sapiens
# Experimental: as §1
# [6] = test system: EB-3 cells (Burkitt's Lymphoma); details: for EC50: Homo sapiens
# Experimental: as §1
# [7] = test system: GA-10 cells (Burkitt's Lymphoma); details: for EC50: Homo sapiens
# Experimental: as §1
# [8] = test system: H9 cells (Cutaneous T-cell Lymphoma); details: for EC50: Homo sapiens
# Experimental: as §1
# [9] = test system: HT cells (DLBCL); details: for EC50: Homo sapiens
# Experimental: as §1
# [10] = test system: JVM-2 cells (Mantle Cell Lymphoma); details: for EC50: Homo sapiens
# Experimental: as §1
# [11] = test system: L-248 cells (Hodgkin's Lymphoma); details: for EC50: Homo sapiens
# Experimental: as §1
# [12] = test system: MHHH-PREB-1 cells (B-cell Lymphoma); details: for EC50: Homo sapiens, B-cell
# Experimental: as §1
# [13] = test system: NU-DUL-1 cells (B-cell Lymphoma); details: for EC50: Homo sapiens
# Experimental: as §1
# [14] = test system: REC-1 cells (Mantle Cell Lymphoma); details: for EC50: Homo sapiens
# Experimental: as §1
# [15] = test system: RPMI-6666 cells (Hodgkin's Lymphoma); details: for EC50: Homo sapiens
# Experimental: as §1
# [16] = test system: Raji cells (Burkitt's Lymphoma); details: for EC50: Homo sapiens
# Experimental: as §1
# [17] = test system: Ramos cells (Burkitt's Lymphoma); details: for EC50: Homo sapiens
# Experimental: as §1
# [18] = test system: ST486 cells (DLBCL); details: for EC50: Homo sapiens
# Experimental: as §1
# [19] = test system: SUDHL-10 cells (DLBCL); details: for EC50: Homo sapiens
# Experimental: as §1
# [20] = test system: SUDHL-8 cells (DLBCL); details: for EC50: Homo sapiens
# Experimental: as §1
# [21] = 24 h, read-out: BCMA (Mean Fluorescence Intensity) EC50
smiles,measurement,setting,value
"Cc1cccc2c1NC(=O)[C@@H](NC(=O)[C@H](CCC(F)(F)F)[C@H](CCC(F)(F)F)C(N)=O)N=C2c1cccc(F)c1 [Compound (22), (2R,3S)—N-((3S)-5-(3-fluorophenyl)-9-methyl-2-oxo-2,3-dihydro-1H-1,4-benzodiazepin-3-yl)-2,3-bis(3,3,3-trifluoropropyl)succinamide]",mBCMA (MFI) Fold Increase,[1],5.9 fold
same,BCMA (Mean Fluorescence Intensity) 1 nM Compound (22),"[1]; 1 nM, 24 h",676
same,BCMA (Mean Fluorescence Intensity) 100 nM Compound (22),"[1]; 100 nM, 24 h",3694
same,EC50,"[1]; BC1, 24 h, read-out: BCMA (Mean Fluorescence Intensity) EC50",30.6 nM
same,EC50,"[1]; BC1, read-out: mBCMA (MFI) EC50",30.6 nM
same,mBCMA (MFI) Fold Increase,[2],2.9 fold
same,BCMA (Mean Fluorescence Intensity) 1 nM Compound (22),"[2]; 1 nM, 24 h",398
same,BCMA (Mean Fluorescence Intensity) 100 nM Compound (22),"[2]; 100 nM, 24 h",1159
same,cell-bound BCMA,[2]; FIG. 6A,increased cell-bound BCMA
same,EC50,[2]; [21],45.6 nM
same,EC50,[2]; read-out: mBCMA (MFI) EC50,45.6 nM
same,mBCMA (MFI) Fold Increase,[3],5.5 fold
same,BCMA (Mean Fluorescence Intensity) 1 nM Compound (22),"[3]; 1 nM, 24 h",6424
same,BCMA (Mean Fluorescence Intensity) 100 nM Compound (22),"[3]; 100 nM, 24 h",13506
same,EC50,[3]; [21],2.3 nM
same,EC50,[3]; read-out: mBCMA (MFI) EC50,2.3 nM
same,mBCMA (MFI) Fold Increase,[4],4.4 fold
same,BCMA (Mean Fluorescence Intensity) 1 nM Compound (22),"[4]; 1 nM, 24 h",8033
same,BCMA (Mean Fluorescence Intensity) 100 nM Compound (22),"[4]; 100 nM, 24 h",12620
same,EC50,[4]; [21],0.87 nM
same,EC50,[4]; read-out: mBCMA (MFI) EC50,0.87 nM
same,mBCMA (MFI) Fold Increase,[5],4.2 fold
same,BCMA (Mean Fluorescence Intensity) 1 nM Compound (22),"[5]; 1 nM, 24 h",1421
same,BCMA (Mean Fluorescence Intensity) 100 nM Compound (22),"[5]; 100 nM, 24 h",2242
same,cell-bound BCMA,[5]; FIG. 7A,increased cell-bound BCMA
same,EC50,[5]; [21],4.9 nM
same,EC50,[5]; read-out: mBCMA (MFI) EC50,4.9 nM
same,mBCMA (MFI) Fold Increase,[6],0.5 fold
same,BCMA (Mean Fluorescence Intensity) 1 nM Compound (22),"[6]; 1 nM, 24 h",549
same,BCMA (Mean Fluorescence Intensity) 100 nM Compound (22),"[6]; 100 nM, 24 h",449
same,EC50,[6]; [21],> 10000 nM
same,EC50,[6]; read-out: mBCMA (MFI) EC50,> 10000 nM
same,mBCMA (MFI) Fold Increase,[7],5.6 fold
same,BCMA (Mean Fluorescence Intensity) 1 nM Compound (22),"[7]; 1 nM, 24 h",41993
same,BCMA (Mean Fluorescence Intensity) 100 nM Compound (22),"[7]; 100 nM, 24 h",51080
same,EC50,[7]; [21],0.56 nM
same,EC50,[7]; read-out: mBCMA (MFI) EC50,0.56 nM
same,mBCMA (MFI) Fold Increase,[8],1.1 fold
same,BCMA (Mean Fluorescence Intensity) 1 nM Compound (22),"[8]; 1 nM, 24 h",811
same,BCMA (Mean Fluorescence Intensity) 100 nM Compound (22),"[8]; 100 nM, 24 h",900
same,EC50,[8]; [21],> 10000 nM
same,EC50,[8]; read-out: mBCMA (MFI) EC50,> 10000 nM
same,mBCMA (MFI) Fold Increase,[9],3.2 fold
same,BCMA (Mean Fluorescence Intensity) 1 nM Compound (22),"[9]; 1 nM, 24 h",488
same,BCMA (Mean Fluorescence Intensity) 100 nM Compound (22),"[9]; 100 nM, 24 h",895
same,EC50,[9]; [21],2.3 nM
same,EC50,[9]; read-out: mBCMA (MFI) EC50,2.3 nM
same,mBCMA (MFI) Fold Increase,[10],7.0 fold
same,BCMA (Mean Fluorescence Intensity) 1 nM Compound (22),"[10]; 1 nM, 24 h",4437
same,BCMA (Mean Fluorescence Intensity) 100 nM Compound (22),"[10]; 100 nM, 24 h",21757
same,EC50,[10]; [21],3.1 nM
same,EC50,[10]; read-out: mBCMA (MFI) EC50,3.1 nM
same,mBCMA (MFI) Fold Increase,[11],1.0 fold
same,BCMA (Mean Fluorescence Intensity) 1 nM Compound (22),"[11]; 1 nM, 24 h",440
same,BCMA (Mean Fluorescence Intensity) 100 nM Compound (22),"[11]; 100 nM, 24 h",445
same,EC50,[11]; [21],> 10000 nM
same,EC50,[11]; read-out: mBCMA (MFI) EC50,> 10000 nM
same,mBCMA (MFI) Fold Increase,[12],4.5 fold
same,BCMA (Mean Fluorescence Intensity) 1 nM Compound (22),"[12]; 1 nM, 24 h",1363
same,BCMA (Mean Fluorescence Intensity) 100 nM Compound (22),"[12]; 100 nM, 24 h",1830
same,EC50,[12]; [21],1.7 nM
same,EC50,[12]; read-out: mBCMA (MFI) EC50,1.7 nM
same,mBCMA (MFI) Fold Increase,[13],7.0 fold
same,BCMA (Mean Fluorescence Intensity) 1 nM Compound (22),"[13]; 1 nM, 24 h",3892
same,BCMA (Mean Fluorescence Intensity) 100 nM Compound (22),"[13]; 100 nM, 24 h",4665
same,EC50,[13]; [21],0.61 nM
same,EC50,[13]; read-out: mBCMA (MFI) EC50,0.61 nM
same,mBCMA (MFI) Fold Increase,[14],1.0 fold
same,BCMA (Mean Fluorescence Intensity) 1 nM Compound (22),"[14]; 1 nM, 24 h",217
same,BCMA (Mean Fluorescence Intensity) 100 nM Compound (22),"[14]; 100 nM, 24 h",243
same,EC50,"[14]; Rec1, 24 h, read-out: BCMA (Mean Fluorescence Intensity) EC50",> 10000 nM
same,EC50,"[14]; Rec1, read-out: mBCMA (MFI) EC50",> 10000 nM
same,mBCMA (MFI) Fold Increase,[15],6.6 fold
same,BCMA (Mean Fluorescence Intensity) 1 nM Compound (22),"[15]; 1 nM, 24 h",971.5
same,BCMA (Mean Fluorescence Intensity) 100 nM Compound (22),"[15]; 100 nM, 24 h",3287.5
same,EC50,[15]; [21],7 nM
same,EC50,[15]; read-out: mBCMA (MFI) EC50,7 nM
same,mBCMA (MFI) Fold Increase,[16],2.2 fold
same,BCMA (Mean Fluorescence Intensity) 1 nM Compound (22),"[16]; 1 nM, 24 h",521
same,BCMA (Mean Fluorescence Intensity) 100 nM Compound (22),"[16]; 100 nM, 24 h",650
same,EC50,[16]; [21],1.1 nM
same,EC50,[16]; read-out: mBCMA (MFI) EC50,1.1 nM
same,mBCMA (MFI) Fold Increase,[17],10.8 fold
same,BCMA (Mean Fluorescence Intensity) 1 nM Compound (22),"[17]; 1 nM, 24 h",4899
same,BCMA (Mean Fluorescence Intensity) 100 nM Compound (22),"[17]; 100 nM, 24 h",10264
same,EC50,[17]; [21],1.4 nM
same,EC50,[17]; read-out: mBCMA (MFI) EC50,1.4 nM
same,mBCMA (MFI) Fold Increase,[18],4.5 fold
same,BCMA (Mean Fluorescence Intensity) 1 nM Compound (22),"[18]; 1 nM, 24 h",10564
same,BCMA (Mean Fluorescence Intensity) 100 nM Compound (22),"[18]; 100 nM, 24 h",13410
same,EC50,[18]; [21],0.58 nM
same,EC50,[18]; read-out: mBCMA (MFI) EC50,0.58 nM
same,mBCMA (MFI) Fold Increase,[19],6.7 fold
same,BCMA (Mean Fluorescence Intensity) 1 nM Compound (22),"[19]; 1 nM, 24 h",6061
same,BCMA (Mean Fluorescence Intensity) 100 nM Compound (22),"[19]; 100 nM, 24 h",7822
same,EC50,"[19]; SU-DHL10, 24 h, read-out: BCMA (Mean Fluorescence Intensity) EC50",5.9 nM
same,EC50,"[19]; SU-DHL10, read-out: mBCMA (MFI) EC50",5.9 nM
same,mBCMA (MFI) Fold Increase,[20],1.7 fold
same,BCMA (Mean Fluorescence Intensity) 1 nM Compound (22),"[20]; 1 nM, 24 h",350
same,BCMA (Mean Fluorescence Intensity) 100 nM Compound (22),"[20]; 100 nM, 24 h",414
same,EC50,"[20]; SU-DHL-8, 24 h, read-out: BCMA (Mean Fluorescence Intensity) EC50",> 10000 nM
same,EC50,"[20]; SU-DHL-8, read-out: mBCMA (MFI) EC50",> 10000 nM
